Assay results published in patent publication US10925858B2, “S-nitrosoglutathione (GSNO) and GSNO reductase inhibitors for use in therapy” (MUSC FOUNDATION FOR RESEARCH DEVELOPMENT, priority 2017, dated 2021).

Experiments:
[1] = tested on: cell adhesion molecules (ICAM-1 and VCAM-1); experiment: Western blotting, protein expression of cell adhesion molecules in isolated microvessels of diabetic mice; type: in vivo; settings: cortex and hippocampus microvessels, GSNO vs untreated diabetic group
Description: Male laca mice weighing between 28-32 g were procured from the Central Animal House, Panjab University, Chandigarh. The animals were acclimatized and were fed with standard pellet diet and water ad libitum. The experimental protocols were approved by the Institutional Ethics Committee and were conducted according to Indian National Science Academy (INSA) guidelines for the use and care of experimental animals. The animals were divided into four groups: (i) Control animals received phosphate buffered saline (PBS) throughout the study; (ii) Control+GSNO animals were administered with GSNO 100 μg/kg body weight orally, dissolved in PBS after every 24 h for 8 weeks; (iii) Diabetic animals were injected with STZ at a dose of 40 mg/kg body weight intraperitoneally for 5 days dissolved in 0.1 mol/L citrate buffer, pH 4.5 and Diabetic+GSNO mice were administered GSNO 100 μg/kg body weight orally dissolved in PBS after every 24 h for 8 weeks after the induction of diabetes. Animals were assessed weekly for development of diabetic encephalopathy in terms of memory deficits. All experimental procedures were done on mice at the end of study. The microvessels were isolated by the method described by Brooks et al., (2005). […]

hBMVECs = experiment: Assay of trans-endothelial electrical resistance (TEER) in thrombin treated hBMVECs; type: cell-based, human; settings: thrombin 0.1 unit/ml; GSNO 100 μM or SIN-1 500 μM pretreated 2 hr
Description: Cell culture: Primary human brain microvascular endothelial cells (hBMVECs) were purchased from Angio-Proteomie (Cat #: cAP-0002, Atlanta, Ga.). The cells were cultured in cell culture flasks or plates precoated with Quick Coating Solution (Angio-Proteomie; Cat #: cAP-01) and maintained in Endothelial Growth Medium (Angio-Proteomie; Cat #: cAP-02) at 37° C. under 5% CO2/95% air. When the cells were almost confluent, the medium was replaced with endothelial basal medium (Angio-Proteomie; Cat #: cAP-03) containing 0.5% fetal bovine serum (FBS; Life Technologies, Grand Island, N.Y.) about 8-12 hours before the experiment. No institutional approval was required for this study. The study was not pre-registered. For evaluation of the endothelial barrier function, hBMVECs were plated on fibronectin-coated polycarbonate filters (Transwell system, Corning, Midland, N.C.) containing Endothelial Growth Medium (Angio-Proteomie Cat #: cAP-02). The medium was renewed every other day. Five days after seeding, the medium was replaced with Endothelial Basal Medium (Angio-Proteomie Cat #: cAP-03) containing 0.5% FBS and incubated for 2 days. Following drug treatments, transendothelial electrical resistance (TEER) was measured by EVOM2 (Word Precision Instruments) as described previously (Li et al., 2006).

In the case of N[C@@H](CCC(=O)N[C@@H](CSN=O)C(=O)NCC(=O)O)C(=O)O [GSNO, S-nitrosoglutathione], the “protein expression of ICAM-1” value [1] was “significantly mitigate”, the “protein expression of VCAM-1” value [1] was “significantly mitigate” and the “thrombin-induced loss of TEER” value (hBMVECs) was “inhibited”.
